Experimental data: ChEMBL document CHEMBL3616471, “Synthesis and in vitro antitumor evaluation of betulin acid ester derivatives as novel apoptosis inducers” (Eur J Med Chem, 2015)
Calls of active or inactive are those of the source. The calls are words filed in the database; no cut-off is given here.

Legend:
MGC-803 [1] = test: Cytotoxicity against human MGC803 cells after 72 hrs by MTT assay; type: functional, cell-based; conditions: MGC-803, 72 h
MGC-803 [2] = test: Selectivity index, ratio of IC50 for mouse NIH/3T3 cells to IC50 for human MGC803 cells; type: functional
MCF7 [3] = test: Cytotoxicity against human MCF7 cells after 72 hrs by MTT assay; type: functional, cell-based; conditions: MCF7, 72 h
Bcap37 [4] = test: Cytotoxicity against human Bcap37 cells after 72 hrs by MTT assay; type: functional, cell-based; conditions: Bcap37, 72 h
A-375 [5] = test: Selectivity index, ratio of IC50 for mouse NIH/3T3 cells to IC50 for human A375 cells; type: functional
Bcap37 [6] = test: Selectivity index, ratio of IC50 for mouse NIH/3T3 cells to IC50 for human Bcap37 cells; type: functional
MCF7 [7] = test: Selectivity index, ratio of IC50 for mouse NIH/3T3 cells to IC50 for human MCF7 cells; type: functional
PC-3 [8] = test: Selectivity index, ratio of IC50 for mouse NIH/3T3 cells to IC50 for human PC3 cells; type: functional
A-375 [9] = test: Cytotoxicity against human A375 cells after 72 hrs by MTT assay; type: functional, cell-based; conditions: A-375, 72 h
PC-3 [10] = test: Cytotoxicity against human PC3 cells after 72 hrs by MTT assay; type: functional, cell-based; conditions: PC-3, 72 h
[11] = Cytotoxicity against mouse NIH/3T3 cells after 72 hrs by MTT assay; type: cell-based; conditions: nih3t3, 72 h
MGC-803 [12] = test: Induction of apoptosis in human MGC803 cells assessed as formation of nicks in DNA at 10 uM after 48 hrs by TUNNEL assay; type: functional, cell-based
MGC-803 [13] = test: Induction of apoptosis in human MGC803 cells assessed as compact and condensed chromatin at 10 uM after 48 hrs using Hoechst 33258 staining by fluorescence microscopic analysis; type: functional, cell-based

Compound	IC50 (MGC-803 [1]) [µM]	Ratio IC50 (MGC-803 [2])	IC50 (MCF7 [3]) [µM]	IC50 (Bcap37 [4]) [µM]	Ratio IC50 (A-375 [5])	Ratio IC50 (Bcap37 [6])	Ratio IC50 (MCF7 [7])	Ratio IC50 (PC-3 [8])	IC50 (A-375 [9]) [µM]	IC50 (PC-3 [10]) [µM]	Activity [11]	Activity (MGC-803 [12])	Activity (MGC-803 [13])
C=C(C)[C@@H]1CC[C@]2(COC(=O)CCC(=O)N(CC)CC)CC[C@]3(C)[C@H](CC[C@@H]4[C@@]5(C)CC[C@H](O)C(C)(C)[C@@H]5CC[C@]43C)[C@@H]12	8.5	7.29	9.2	6.7	6.01	9.25	6.73	6.45	10.3	9.6	Non-toxic		
C=C(C)[C@@H]1CC[C@]2(COC(=O)c3ccccc3)CC[C@]3(C)[C@H](CC[C@@H]4[C@@]5(C)CC[C@H](O)C(C)(C)[C@@H]5CC[C@]43C)[C@@H]12	> 100		> 100	> 100					> 100	> 100			
C=C(C)[C@@H]1CC[C@]2(COC(=O)CCC(=O)O)CC[C@]3(C)[C@H](CC[C@@H]4[C@@]5(C)CC[C@H](O)C(C)(C)[C@@H]5CC[C@]43C)[C@@H]12	11.3	6.45	14.5	15.7	4.07	4.64	5.02	5.83	17.9	12.5	Non-toxic		
C=C(C)[C@@H]1CC[C@]2(COC(=O)c3ccccc3C(F)(F)F)CC[C@]3(C)[C@H](CC[C@@H]4[C@@]5(C)CC[C@H](OC(=O)c6ccccc6C(F)(F)F)C(C)(C)[C@@H]5CC[C@]43C)[C@@H]12	> 100		> 100	> 100					> 100	> 100			
C=C(C)[C@@H]1CC[C@]2(COC(=O)c3cccc(Cl)c3)CC[C@]3(C)[C@H](CC[C@@H]4[C@@]5(C)CC[C@H](O)C(C)(C)[C@@H]5CC[C@]43C)[C@@H]12	> 100		> 100	> 100					> 100	> 100			
C=C(C)[C@@H]1CC[C@]2(CO)CC[C@]3(C)[C@H](CC[C@@H]4[C@@]5(C)CC[C@H](O)C(C)(C)[C@@H]5CC[C@]43C)[C@@H]12 [BETULIN]	30.2		19.3	25.5					28	22.4			
C=C(C)[C@@H]1CC[C@]2(COC(=O)/C=C/C(=O)O)CC[C@]3(C)[C@H](CC[C@@H]4[C@@]5(C)CC[C@H](O)C(C)(C)[C@@H]5CC[C@]43C)[C@@H]12	21.3	>3	17.1	18.3	>3	>3	>3	>3	23.2	25.8	Toxic		
C=C(C)[C@@H]1CC[C@]2(COC(=O)c3ccc(F)cc3)CC[C@]3(C)[C@H](CC[C@@H]4[C@@]5(C)CC[C@H](O)C(C)(C)[C@@H]5CC[C@]43C)[C@@H]12	> 100		> 100	> 100					> 100	> 100			
C=C(C)[C@@H]1CC[C@]2(COC(=O)c3cccc([N+](=O)[O-])c3)CC[C@]3(C)[C@H](CC[C@@H]4[C@@]5(C)CC[C@H](OC(=O)c6cccc([N+](=O)[O-])c6)C(C)(C)[C@@H]5CC[C@]43C)[C@@H]12	> 100		> 100	> 100					> 100	> 100			
C=C(C)[C@@H]1CC[C@]2(COC(=O)Cc3ccc(Cl)cc3)CC[C@]3(C)[C@H](CC[C@@H]4[C@@]5(C)CC[C@H](O)C(C)(C)[C@@H]5CC[C@]43C)[C@@H]12	> 100		> 100	> 100					> 100	> 100			
C=C(C)[C@@H]1CC[C@]2(COC(=O)/C=C/c3ccccc3)CC[C@]3(C)[C@H](CC[C@@H]4[C@@]5(C)CC[C@H](O)C(C)(C)[C@@H]5CC[C@]43C)[C@@H]12	> 100		> 100	> 100					> 100	> 100			
CC[C@@]1(O)C(=O)OCc2c1cc1n(c2=O)Cc2cc3cc(O)ccc3nc2-1												Active	Active
C=C(C)[C@@H]1CC[C@]2(COC(=O)c3ccccc3C(F)(F)F)CC[C@]3(C)[C@H](CC[C@@H]4[C@@]5(C)CC[C@H](O)C(C)(C)[C@@H]5CC[C@]43C)[C@@H]12	> 100		> 100	> 100					> 100	> 100			
C=C(C)[C@@H]1CC[C@]2(COC(=O)CCC(=O)N3CCOCC3)CC[C@]3(C)[C@H](CC[C@@H]4[C@@]5(C)CC[C@H](O)C(C)(C)[C@@H]5CC[C@]43C)[C@@H]12	9.2	6.23	11.5	6.4	3.1	8.97	4.99	5.12	18.5	11.2	Non-toxic		
C=C(C)[C@@H]1CC[C@]2(COC(=O)c3ccccc3)CC[C@]3(C)[C@H](CC[C@@H]4[C@@]5(C)CC[C@H](OC(=O)c6ccccc6)C(C)(C)[C@@H]5CC[C@]43C)[C@@H]12	> 100		> 100	> 100					> 100	> 100			
C=C(C)[C@@H]1CC[C@]2(COC(=O)CCC(=O)N3CCCC3)CC[C@]3(C)[C@H](CC[C@@H]4[C@@]5(C)CC[C@H](O)C(C)(C)[C@@H]5CC[C@]43C)[C@@H]12	8.9	4.97	10.1	7.9	3.52	5.6	4.38	5.33	12.6	8.3	Non-toxic		
C=C(C)[C@@H]1CC[C@]2(COC(=O)c3ccccc3C)CC[C@]3(C)[C@H](CC[C@@H]4[C@@]5(C)CC[C@H](O)C(C)(C)[C@@H]5CC[C@]43C)[C@@H]12	> 100		> 100	> 100					> 100	> 100			
C=C(C)[C@@H]1CC[C@]2(COC(=O)c3ccccc3Cl)CC[C@]3(C)[C@H](CC[C@@H]4[C@@]5(C)CC[C@H](OC(=O)c6ccccc6Cl)C(C)(C)[C@@H]5CC[C@]43C)[C@@H]12	> 100		> 100	> 100					> 100	> 100			
C=C(C)[C@@H]1CC[C@]2(COC(=O)/C=C/C(=O)N3CCCCC3)CC[C@]3(C)[C@H](CC[C@@H]4[C@@]5(C)CC[C@H](O)C(C)(C)[C@@H]5CC[C@]43C)[C@@H]12	5.3	>3	6.3	7.4	>3	>3	>3	>3	14.4	9.6	Toxic		
